Assay results taken from patent US11497766B2, “Compositions and methods for treating or preventing diseases associated with oxidative stress” (CXL OPHTHALMICS, LLC, priority 2012, dated 2022).

Test system: eyes
Assay: Corneal collagen cross-linking with riboflavin and sodium iodide; post-operative corneal haze
Format: in vivo
Conditions: corneal collagen cross-linking utilizing 0.5% riboflavin and 0.015% (1 mmol) sodium iodide; over 200 eyes; compared to historical cross-linking procedures performed without sodium iodide
Protocol: Corneal collagen cross-linking utilizing 0.5% riboflavin and 0.015% (1 mmol) sodium iodide was performed in over 200 eyes.

With `[I-].[Na+]` [sodium iodide] the Post-operative corneal haze was “minimal”.
